# Assay results reported in patent publication US12565473B2, “Coating composition” (priority 2020, dated 2026).
# What was measured:
# Rtkn = assay: ToxTracker genotoxicity assay, Rtkn-GFP reporter induction
# [1] = test system: mouse embryonic stem (mES) reporter cell lines; details: Bscl2 and Rtkn, absence and presence of S9
# Bscl2 = assay: ToxTracker genotoxicity assay, Bscl2-GFP reporter induction
# [2] = with S9 rat liver extract, 3 h exposure and 24 h recovery, at 10% cytotoxicity
# [3] = with S9 rat liver extract, 3 h exposure and 24 h recovery, at 25% cytotoxicity
# [4] = with S9 rat liver extract, 3 h exposure and 24 h recovery, at 50% cytotoxicity
# [5] = without S9 rat liver extract, 24 h exposure, at 10% cytotoxicity
# [6] = without S9 rat liver extract, 24 h exposure, at 25% cytotoxicity
# [7] = without S9 rat liver extract, 24 h exposure, at 50% cytotoxicity
Structure (SMILES),Rtkn GFP reporter induction level (Rtkn; [2]),Rtkn GFP reporter induction level (Rtkn; [3]),Rtkn GFP reporter induction level (Rtkn; [4]),Rtkn GFP reporter induction level (Rtkn; [5]),Rtkn GFP reporter induction level (Rtkn; [6]),Rtkn GFP reporter induction level (Rtkn; [7]),Genotoxicity test result (overall conclusion) [1],Bscl 2 GFP reporter induction level (Bscl2; [2]),Bscl 2 GFP reporter induction level (Bscl2; [3]),Bscl 2 GFP reporter induction level (Bscl2; [4]),Bscl 2 GFP reporter induction level (Bscl2; [5]),Bscl 2 GFP reporter induction level (Bscl2; [6]),Bscl 2 GFP reporter induction level (Bscl2; [7])
CCCCOCC(CN1CC1C)OC(=O)NCCCCCCn1c(=O)n(CCCCCCNC(=O)OC(COCCCC)CN2CC2C)c(=O)n(CCCCCCNC(=O)OC(COCCCC)CN2CC2C)c1=O (centres unmarked) [Composition 1],0.9,0.8,0.6,0.8,0.8,0.6,non-genotoxic,1.0,1.0,0.9,1.1,1.1,1.1
CCCCOCC(CN1CC1C)OC(=O)NCCCCCCn1c(=O)n(CCCCCCNC(=O)OC(COCCCC)CN2CC2C)c(=O)n(CCCCCCNC(=O)OC(COCCCC)CN2CC2C)c1=O (centres unmarked) [Composition 21],1.1,1.0,0.9,1.1,1.0,0.9,non-genotoxic,1.0,0.9,0.7,1.1,1.1,0.9
